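Five concentrations, 48 hours, 96-well plates. TGI denotes the concentration required for complete inhibition of growth.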
Assays:
Experiment in all cases: NCI tumour cell line growth inhibition, 48 h
DMS 114 small cell lung = test system: DMS 114 small cell lung
KM20L2 colon = test system: KM20L2 colon
DMS 273 small cell lung = test system: DMS 273 small cell lung
LXFL 529 NSCLC = test system: LXFL 529 NSCLC
P388/ADR leukemia = test system: P388/ADR leukemia
SN12K1 renal = test system: SN12K1 renal
P388 leukemia = test system: P388 leukemia
RXF-631 renal = test system: RXF-631 renal

Work on CC(=O)O[C@]12CCCCCC1C1(O)C(O)CCC[C@H]12 (some centres undefined) yielded a TGI (DMS 114 small cell lung) greater than 100 µM, a TGI (KM20L2 colon) greater than 100 µM and a TGI (DMS 273 small cell lung) greater than 100 µM. It also gave a TGI (LXFL 529 NSCLC) greater than 100 µM.

Molecule O=C(NC(Cc1ccc(I)cc1)C(=O)O)c1ccc(I)cc1 (centres undefined) has a TGI (P388/ADR leukemia) greater than 100 µM, a TGI (DMS 114 small cell lung) greater than 100 µM and a TGI (KM20L2 colon) greater than 100 µM. The TGI (SN12K1 renal) was greater than 100 µM, the TGI (DMS 273 small cell lung) was greater than 100 µM and the TGI (P388 leukemia) was greater than 100 µM.

With CCOC(=O)/C=C(\C)c1ccc(C)cc1C the TGI (DMS 114 small cell lung) was greater than 100 µM, the TGI (KM20L2 colon) was greater than 100 µM and the TGI (RXF-631 renal) was greater than 100 µM. For the same molecule, the TGI (DMS 273 small cell lung) was greater than 100 µM and the TGI (LXFL 529 NSCLC) was 28.6 µM.

Cc1cc(=O)c2c([nH]1)NS(=O)(=O)NC2=O was tested, and the TGI (RXF-631 renal) was greater than 100 µM, the TGI (DMS 273 small cell lung) was greater than 100 µM and the TGI (LXFL 529 NSCLC) was greater than 100 µM.

With O=C1C=CC(=O)N1Nc1ccc([N+](=O)[O-])cc1[N+](=O)[O-] the TGI (DMS 114 small cell lung) was greater than 100 µM, the TGI (KM20L2 colon) was greater than 100 µM and the TGI (DMS 273 small cell lung) was greater than 100 µM. It also gave a TGI (LXFL 529 NSCLC) greater than 64.6 µM.

O=c1ccc2cc3ccc4cccc5ccc(c2o1)c3c45 showed a TGI (DMS 114 small cell lung) greater than 100 µM, a TGI (KM20L2 colon) greater than 100 µM and a TGI (RXF-631 renal) greater than 100 µM. For the same molecule, the TGI (LXFL 529 NSCLC) was greater than 100 µM.

Molecule BrC/C=C/C[P+](c1ccccc1)(c1ccccc1)c1ccccc1 has a TGI (DMS 114 small cell lung) of 84 µM, a TGI (KM20L2 colon) greater than 100 µM and a TGI (RXF-631 renal) greater than 100 µM. It also gave a TGI (DMS 273 small cell lung) of 14.2 µM and a TGI (LXFL 529 NSCLC) of 45.1 µM.

Work on COCOc1ccc(Cn2c(=O)n(C)c(=O)c3c2ncn3C)cc1[N+](=O)[O-] yielded a TGI (DMS 114 small cell lung) greater than 100 µM, a TGI (KM20L2 colon) greater than 100 µM and a TGI (DMS 273 small cell lung) greater than 100 µM. The TGI (LXFL 529 NSCLC) was greater than 100 µM.

With C=CCNC(=S)/N=C/c1c(O)c2ccccc2oc1=O the TGI (DMS 114 small cell lung) was greater than 100 µM, the TGI (KM20L2 colon) was greater than 100 µM and the TGI (DMS 273 small cell lung) was greater than 100 µM. The TGI (LXFL 529 NSCLC) was greater than 100 µM.

With O=S(=O)(O)c1cc2ccc1/C=C\c1ccc(cc1S(=O)(=O)O)N=Nc1ccc(c(S(=O)(=O)O)c1)/C=C\c1ccc(cc1S(=O)(=O)O)N=N2 the TGI (P388/ADR leukemia) was greater than 100 µM, the TGI (KM20L2 colon) was greater than 100 µM and the TGI (SN12K1 renal) was greater than 100 µM. It also gave a TGI (DMS 273 small cell lung) greater than 100 µM and a TGI (P388 leukemia) greater than 100 µM.
